Measured values taken from US20250243180A1, “TARGETED PROTEIN DEGRADATION” (Monte Rosa Therapeutics AG, priority 2023, published 2025).
Read-outs that look alike come from different tables or passages of the source.

How the values were obtained:
NEK7 = NEK7 (Homo sapiens (Human), UniProt Q8TDX7+Q96SW2); assay: NEK7 NanoBiT degradation assay in Cal51 NEK7 NanoBiT cell line; type: cell-based; conditions: Cal51 NEK7 NanoBiT cells, 24 hours; for Dmax: CAL-51
How it was run: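 Cal51 cells with CRISPR knock-in HiBiT-tagged endogenous NEK7 plus stable LgBiT, in live-cell Endurazine medium, seeded 16 h before dosing. Compounds at final 1 μM to 0.05 nM for 24 h at 37 °C, then luminescence read. Response normalized to plate controls and fitted with a 4-parameter logistic giving EC50.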

IL-1β release = IL-1β release in human monocyte-derived macrophages, LPS/nigericin stimulation; type: cell-based; conditions: Macrophage, 24 h pre-treatment, LPS 3 h then 10 μM nigericin 1 h, read-out: IL-1b IC50 (NIG)
Method: (§1) Human monocytes were enriched and isolated from a buffy coat of healthy donor whole blood with a RosetteSep™ Human Monocyte Enrichment Cocktail (Cat.No. 15068, StemCell) and Ficoll-Plaque PLUS (Cat.No. H8889, Sigma). Monocytes were differentiated into macrophages by treatment with 100 ng/mL M-CSF for 6 days at 37° C., 5% CO2. Differentiated macrophages were seeded overnight (50,000 cells/well) in 100 µL of medium in a 96-well, white-bottom plate at 37° C., 5% CO2. Cells were treated with a concentration range of MGD for 24 hours prior to stimulation with nigericin. Macrophages were primed with […] LPS for 3 h followed by 1 h stimulation with 10 μM nigericin. Media of stimulated macrophages were collected and assayed for caspase 1 activity directly (Promega G9951), according to manufacturer's instructions. For IL-1β release assay, media of stimulated macrophages were collected and stored at −20° C., then thawed at 4° C. before assaying for IL-1β activity (Promega W6011), according to manufacturer's instructions.

CRBN-DDB1 = CRBN-DDB1 (Homo sapiens (Human), UniProt Q96SW2); assay: Compound binding to CRBN by HTRF assay
CRBN-DDB1, sequence (Q96SW2 whole entry): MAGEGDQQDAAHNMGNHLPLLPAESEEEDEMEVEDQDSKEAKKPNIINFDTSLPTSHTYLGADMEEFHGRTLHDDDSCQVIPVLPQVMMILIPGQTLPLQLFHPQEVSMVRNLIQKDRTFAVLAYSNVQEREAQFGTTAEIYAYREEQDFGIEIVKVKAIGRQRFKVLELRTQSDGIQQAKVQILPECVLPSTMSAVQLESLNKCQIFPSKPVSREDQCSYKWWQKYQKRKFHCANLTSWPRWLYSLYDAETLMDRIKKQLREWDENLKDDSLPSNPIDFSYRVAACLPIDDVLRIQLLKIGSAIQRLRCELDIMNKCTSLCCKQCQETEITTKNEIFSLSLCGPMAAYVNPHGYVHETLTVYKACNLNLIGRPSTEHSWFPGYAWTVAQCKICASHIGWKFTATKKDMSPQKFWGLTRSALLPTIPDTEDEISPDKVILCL
CRBN-DDB1, sequence (Q16531 whole entry partner): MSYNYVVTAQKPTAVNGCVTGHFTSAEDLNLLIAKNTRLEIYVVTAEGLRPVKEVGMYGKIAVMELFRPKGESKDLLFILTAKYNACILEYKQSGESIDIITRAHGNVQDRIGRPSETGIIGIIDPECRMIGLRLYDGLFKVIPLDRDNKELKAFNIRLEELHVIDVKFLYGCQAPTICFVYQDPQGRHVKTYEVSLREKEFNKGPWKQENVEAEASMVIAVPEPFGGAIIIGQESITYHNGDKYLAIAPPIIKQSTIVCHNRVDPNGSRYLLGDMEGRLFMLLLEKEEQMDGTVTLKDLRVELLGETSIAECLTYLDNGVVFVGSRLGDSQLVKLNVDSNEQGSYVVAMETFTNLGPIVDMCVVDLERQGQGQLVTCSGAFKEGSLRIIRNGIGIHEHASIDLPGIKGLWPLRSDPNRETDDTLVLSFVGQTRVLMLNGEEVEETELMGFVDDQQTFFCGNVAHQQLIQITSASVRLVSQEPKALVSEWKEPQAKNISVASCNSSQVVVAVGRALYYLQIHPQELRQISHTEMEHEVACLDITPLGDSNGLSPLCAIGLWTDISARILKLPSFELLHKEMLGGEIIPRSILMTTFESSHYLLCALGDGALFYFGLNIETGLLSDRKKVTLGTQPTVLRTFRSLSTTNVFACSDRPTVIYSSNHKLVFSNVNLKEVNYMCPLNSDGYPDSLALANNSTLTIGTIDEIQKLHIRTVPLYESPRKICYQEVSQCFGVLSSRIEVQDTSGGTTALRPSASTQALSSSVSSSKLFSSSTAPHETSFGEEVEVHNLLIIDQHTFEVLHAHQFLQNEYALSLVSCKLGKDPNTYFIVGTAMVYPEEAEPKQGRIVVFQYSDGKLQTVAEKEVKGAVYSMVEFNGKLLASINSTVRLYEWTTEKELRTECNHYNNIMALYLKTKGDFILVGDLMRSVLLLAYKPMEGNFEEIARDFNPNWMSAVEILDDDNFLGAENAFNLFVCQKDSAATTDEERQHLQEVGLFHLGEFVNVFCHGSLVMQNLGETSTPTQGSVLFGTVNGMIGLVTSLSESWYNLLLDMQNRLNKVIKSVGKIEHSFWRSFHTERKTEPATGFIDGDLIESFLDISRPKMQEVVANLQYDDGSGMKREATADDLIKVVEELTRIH
How it was run: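 HTRF displacement of Cy5-thalidomide probe (100 nM) from His-tagged CRBN-DDB1 (2.5 nM) with anti-His terbium cryptate, in HEPES/NaCl/TCEP/EDTA/Tween20 buffer; 11-point 1:3 dilution series, 30 min at ambient temperature. Signal (665/620 nm) normalized to lenalidomide and DMSO controls; EC50 fitted, Ki by Cheng-Prusoff from geometric mean EC50.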

Caspase-1 activity = Caspase-1 activity in human monocyte-derived macrophages, LPS/nigericin stimulation; type: cell-based; conditions: Macrophage, 24 h pre-treatment, LPS 3 h then 10 μM nigericin 1 h, read-out: Caspase-1 IC50 (NIG)
Method: as §1

[1] = NEK7 degradation, read-out: NanoBiT Dmax
[2] = NEK7 degradation, read-out: NanoBiT DC50

NEK7, sequence (Q8TDX7 whole entry): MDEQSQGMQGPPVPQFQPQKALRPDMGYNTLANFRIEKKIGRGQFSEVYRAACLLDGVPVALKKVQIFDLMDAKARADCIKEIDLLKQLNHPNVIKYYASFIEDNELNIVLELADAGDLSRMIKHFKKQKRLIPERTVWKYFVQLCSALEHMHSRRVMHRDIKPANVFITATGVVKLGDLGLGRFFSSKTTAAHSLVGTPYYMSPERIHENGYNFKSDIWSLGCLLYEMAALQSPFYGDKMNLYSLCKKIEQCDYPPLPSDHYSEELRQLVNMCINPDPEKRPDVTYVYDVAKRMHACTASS
NEK7, sequence (Q96SW2 whole entry): as the sequence (Q96SW2 whole entry) above
NEK7, sequence (Q16531 2-1140 partner): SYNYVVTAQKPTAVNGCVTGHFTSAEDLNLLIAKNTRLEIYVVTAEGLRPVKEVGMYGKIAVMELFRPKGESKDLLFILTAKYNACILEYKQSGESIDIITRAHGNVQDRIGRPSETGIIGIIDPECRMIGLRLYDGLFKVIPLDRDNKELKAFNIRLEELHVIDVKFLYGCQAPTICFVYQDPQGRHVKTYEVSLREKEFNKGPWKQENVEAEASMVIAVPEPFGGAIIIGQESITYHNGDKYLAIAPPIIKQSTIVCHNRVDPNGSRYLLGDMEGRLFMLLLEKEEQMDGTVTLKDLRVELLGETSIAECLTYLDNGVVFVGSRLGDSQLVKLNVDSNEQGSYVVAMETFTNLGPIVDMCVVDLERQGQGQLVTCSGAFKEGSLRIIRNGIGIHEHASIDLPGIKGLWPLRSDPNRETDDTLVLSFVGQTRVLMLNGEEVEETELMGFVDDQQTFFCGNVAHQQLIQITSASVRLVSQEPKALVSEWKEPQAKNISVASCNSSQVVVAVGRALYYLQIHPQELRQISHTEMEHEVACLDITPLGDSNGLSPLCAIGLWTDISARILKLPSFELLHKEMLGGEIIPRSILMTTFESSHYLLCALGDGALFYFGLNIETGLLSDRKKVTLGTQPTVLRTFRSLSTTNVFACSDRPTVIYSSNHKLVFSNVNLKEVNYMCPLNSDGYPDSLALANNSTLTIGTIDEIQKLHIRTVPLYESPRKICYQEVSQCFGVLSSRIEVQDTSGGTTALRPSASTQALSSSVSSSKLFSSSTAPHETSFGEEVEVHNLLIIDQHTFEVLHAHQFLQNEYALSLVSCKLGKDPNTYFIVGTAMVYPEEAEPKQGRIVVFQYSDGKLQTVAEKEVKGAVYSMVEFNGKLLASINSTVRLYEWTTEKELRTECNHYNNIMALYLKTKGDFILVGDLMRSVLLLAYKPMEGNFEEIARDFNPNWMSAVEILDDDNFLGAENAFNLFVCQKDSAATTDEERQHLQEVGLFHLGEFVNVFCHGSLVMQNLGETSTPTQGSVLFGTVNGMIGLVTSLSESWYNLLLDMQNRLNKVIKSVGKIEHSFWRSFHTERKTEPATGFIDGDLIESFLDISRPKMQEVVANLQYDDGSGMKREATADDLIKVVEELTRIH

SMILES | Dmax (NEK7; read-out: NEK7 NanoBiT Dmax) [%] | Dmax (NEK7; [1]) [%] | DC50 (NEK7; read-out: NEK7 NanoBiT DC50) [nM] | DC50 (NEK7; [2]) [nM] | IC50 (IL-1β release) [nM] | EC50 (CRBN-DDB1) [nM] | EC50 (CRBN-DDB1; HTRF class, Cereblon binding) [nM] | IC50 (Caspase-1 activity) [nM]
CC(C)(C(=O)NCc1cc(Cl)c(C2CCC(=O)NC2=O)c(Cl)c1)c1ccc2ocnc2c1 (centres unmarked) [Compound 17] | 98 | > 75 | 0.1 | ≤ 100 | 0.03 | 20 | ≤ 100 | –
CC(C)(C(=O)NCc1cc(Cl)c(C2CCC(=O)NC2=O)c(Cl)c1)c1ncccn1 (centres unmarked) [Compound 34] | 78 | > 75 | 28 | ≤ 100 | 7.36 | 140 | 100 to 1000 | 7.25
CC(C)(C(=O)NCc1cc(Cl)c(C2CCC(=O)NC2=O)c(Cl)c1)c1ccccc1 (centres unmarked) [Compound 37, N-(3,5-dichloro-4-(2,6-dioxopiperidin-3-yl)benzyl)-2-methyl-2-phenylpropanamide] | 97 | > 75 | 1 | ≤ 100 | 0.31 | 30 | ≤ 100 | 0.14
CC(C)(C(=O)NCc1cc(Cl)c(C2CCC(=O)NC2=O)c(Cl)c1)c1ccnc(F)c1 (centres unmarked) [Compound 93] | 92 | > 75 | 4 | ≤ 100 | 0.9 | 70 | ≤ 100 | 0.45
CC(C)(C(=O)NCc1cc(Cl)c(C2CCC(=O)NC2=O)c(Cl)c1)c1c(F)cccc1F (centres unmarked) [Compound 94] | 98 | > 75 | 1 | ≤ 100 | 0.1 | 70 | ≤ 100 | –
Cc1cc(C(C)(C)C(=O)NCc2cc(Cl)c(C3CCC(=O)NC3=O)c(Cl)c2)ccn1 (centres unmarked) [Compound 95] | 92 | > 75 | 6 | ≤ 100 | 1.21 | 100 | ≤ 100 | 0.82
CC(C)(C(=O)NCc1cc(Cl)c(C2CCC(=O)NC2=O)c(Cl)c1)c1ccncc1 (centres unmarked) [Compound 108] | 92 | > 75 | 3 | ≤ 100 | 0.41 | 80 | ≤ 100 | 0.54
Cc1cnc(C(C)(C)C(=O)NCc2cc(Cl)c(C3CCC(=O)NC3=O)c(Cl)c2)cn1 (centres unmarked) [Compound 162] | 86 | > 75 | 13 | ≤ 100 | 2.03 | 290 | 100 to 1000 | 1.66
CC(C)(C(=O)NCc1cc(Cl)c(C2CCC(=O)NC2=O)c(Cl)c1)c1ncc(C(F)F)cn1 (centres unmarked) [Compound 181, N-(3,5-dichloro-4-(2,6-dioxopiperidin-3-yl)benzyl)-2-(5-(difluoromethyl)pyrimidin-2-yl)-2-methylpropanamide] | 93 | > 75 | 5 | ≤ 100 | 1.96 | 190 | 100 to 1000 | 1.95
CC(C)(C(=O)NCc1cc(Cl)c(C2CCC(=O)NC2=O)c(Cl)c1)c1ccc(C2CC2)nn1 (centres unmarked) [Compound 192] | 92 | > 75 | 5 | ≤ 100 | 0.94 | 90 | ≤ 100 | 0.75
CC(C)(C(=O)NCc1cc(F)c(C2CCC(=O)NC2=O)c(Cl)c1)c1ccc(OC(F)(F)F)nn1 (centres unmarked) [Compound 272] | 57 | 50 to 75 | 312 | 100 to 1000 | – | 230 | 100 to 1000 | –
Cc1ccc(C(C)(C)C(=O)NCc2cc(F)c(C3CCC(=O)NC3=O)c(Cl)c2)nn1 (centres unmarked) [Compound 275] | 61 | 50 to 75 | 190 | 100 to 1000 | – | 210 | 100 to 1000 | –
CC(F)(F)c1ccc(C(C)(C)C(=O)NCc2cc(F)c(C3CCC(=O)NC3=O)c(Cl)c2)nn1 (centres unmarked) [Compound 277] | 61 | 50 to 75 | 155 | 100 to 1000 | – | 180 | 100 to 1000 | –
Cc1conc1C(C)(C)C(=O)NCc1cc(F)c(C2CCC(=O)NC2=O)c(Cl)c1 (centres unmarked) [Compound 279] | 54 | 50 to 75 | 672 | 100 to 1000 | – | 350 | 100 to 1000 | –

Other lines, results leading:

Dmax (NEK7; read-out: NEK7 NanoBiT Dmax) [%] | Dmax (NEK7; [1]) [%] | DC50 (NEK7; read-out: NEK7 NanoBiT DC50) [nM] | DC50 (NEK7; [2]) [nM] | IC50 (IL-1β release) [nM] | EC50 (CRBN-DDB1) [nM] | EC50 (CRBN-DDB1; HTRF class, Cereblon binding) [nM] | IC50 (Caspase-1 activity) [nM] | SMILES
97 | > 75 | 2 | ≤ 100 | 0.83 | 70 | ≤ 100 | 0.49 | CC(C)(C(=O)NCc1cc(Cl)c(C2CCC(=O)NC2=O)c(Cl)c1)c1ccc(S(N)(=O)=O)cc1 (centres unmarked) [Compound 76]
97 | > 75 | 1 | ≤ 100 | 0.2 | 80 | ≤ 100 | 0.13 | CC(C)(C(=O)NCc1cc(Cl)c(C2CCC(=O)NC2=O)c(Cl)c1)c1ccc(F)cc1 (centres unmarked) [Compound 96]
76 | > 75 | 50 | ≤ 100 | 5.23 | 170 | 100 to 1000 | 5.84 | CC(C)(C(=O)NCc1cc(Cl)c(C2CCC(=O)NC2=O)c(Cl)c1)c1ccnc(C(F)(F)F)c1 (centres unmarked) [Compound 97]
76 | > 75 | 50 | ≤ 100 | 9.87 | 320 | 100 to 1000 | 11.2 | Cc1nnc(C(C)(C)C(=O)NCc2cc(Cl)c(C3CCC(=O)NC3=O)c(Cl)c2)o1 (centres unmarked) [Compound 110]
68 | 50 to 75 | 213 | 100 to 1000 | – | 520 | 100 to 1000 | – | Cc1cnc(C(C)(C)C(=O)NCc2cc(C)c(C3CCC(=O)NC3=O)c(Cl)c2)nc1 (centres unmarked) [Compound 271]
79 | > 75 | 33 | ≤ 100 | – | 190 | 100 to 1000 | – | CC(C)(C(=O)NCc1cc(F)c(C2CCC(=O)NC2=O)c(Cl)c1)c1ccc(OC(F)F)nn1 (centres unmarked) [Compound 276]
71 | 50 to 75 | 76 | ≤ 100 | – | 190 | 100 to 1000 | – | CC(C)(C(=O)NCc1cc(F)c(C2CCC(=O)NC2=O)c(Cl)c1)c1nocc1C(F)(F)F (centres unmarked) [Compound 278]
60 | 50 to 75 | 143 | 100 to 1000 | – | 290 | 100 to 1000 | – | CC(C)(C(=O)NCc1cc(F)c(C2CCC(=O)NC2=O)c(Cl)c1)c1ccc(C(F)F)nn1 (centres unmarked) [Compound 280]
67 | 50 to 75 | 179 | 100 to 1000 | – | 260 | 100 to 1000 | – | Cc1ncc(C(C)(C)C(=O)NCc2cc(F)c(C3CCC(=O)NC3=O)c(Cl)c2)o1 (centres unmarked) [Compound 281]
78 | > 75 | 26 | ≤ 100 | – | 110 | 100 to 1000 | – | Cc1ncc(C(C)(C)C(=O)NCc2cc(Cl)c(C3CCC(=O)NC3=O)c(Cl)c2)o1 (centres unmarked) [Compound 282]
